Reference: US9850283B2, “Macrocyclic inhibitors of the PD-1/PD-L1 and CD80(B7-1)/PD-L1 protein/protein interactions” (BRISTOL-MYERS SQUIBB COMPANY, priority 2013, dated 2017)
Positions of bridges follow the written chain, without caps; N, C: chain ends. Non-standard residues stand in square brackets, D forms with d. Residues, ends and D or L forms follow the SMILES beside them. Bta = N[C@@H](Cc1csc2ccccc12)C(=O)O; Hyp = O=C(O)[C@@H]1C[C@@H](O)CN1; NMeNle = CCCC[C@H](NC)C(=O)O; NMeA = CN[C@@H](C)C(=O)O; Orn = NCCC[C@H](N)C(=O)O; Dab = NCC[C@H](N)C(=O)O; Dap = NC[C@H](N)C(=O)O

Tests used:
Human PD-L1/PD-1 = biological target: T1, Human PD-L1/PD-1 (Homo sapiens, UniProt Q9NZQ7); experiment: HTRF PD-1-Ig/PD-L1-His binding assay (human PD-L1); settings: cluster symbol; read-out: HTRF IC50 cluster
T1 construct: made in house; host or cells: HEK293T
Outline: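 The time-resolved fluorescence signal comes from Eu-cryptate anti-Ig (1 nM) and APC anti-His (20 nM) antibodies bound to a PD-1-Ig/PD-L1-His complex. Both partners lack transmembrane regions.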

[1] = biological target: T2, LK35.2-hPD-L1 cells / PE-labeled PD-1-Ig (Homo sapiens, UniProt Q9NZQ7); experiment: LK35.2-hPD-L1 cell binding high-content screening assay; format: cell-based; settings: cluster symbol; cell line of CBA not given (LK35.2-hPD-L1 or 293T-hPD-L1); read-out: CBA IC50 cluster
T2 construct: expressed in transfected cells; host or cells: LK35.2 mouse B cell line
Outline: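 Mouse LK35.2 B cells stably over-expressing human PD-L1, cultured overnight, treated with compound plus PE-labeled human PD-1-Ig (1 nM final) in RPMI/10% FCS for 1 h at 37 °C. After washing, bound fluorescence quantified by high-content imaging.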

T2 sequence (Q9NZQ7 19-290): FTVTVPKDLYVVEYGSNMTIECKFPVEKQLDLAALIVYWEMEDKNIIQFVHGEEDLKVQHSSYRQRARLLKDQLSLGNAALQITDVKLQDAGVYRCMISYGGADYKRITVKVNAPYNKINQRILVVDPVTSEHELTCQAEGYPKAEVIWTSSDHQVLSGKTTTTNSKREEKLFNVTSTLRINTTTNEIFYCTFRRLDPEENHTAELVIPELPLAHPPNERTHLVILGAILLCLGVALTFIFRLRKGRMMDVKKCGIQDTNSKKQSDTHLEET
T1 sequence (Q9NZQ7 with tags, fused parts or gaps): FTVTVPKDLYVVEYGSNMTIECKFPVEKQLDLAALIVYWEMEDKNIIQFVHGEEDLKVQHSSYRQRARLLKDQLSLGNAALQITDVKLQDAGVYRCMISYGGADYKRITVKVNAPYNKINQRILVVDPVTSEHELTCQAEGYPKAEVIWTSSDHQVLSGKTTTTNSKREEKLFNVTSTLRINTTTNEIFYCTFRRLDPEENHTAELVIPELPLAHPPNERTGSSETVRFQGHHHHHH

Row | SMILES | IC50 (Human PD-L1/PD-1) | IC50 [1]
1 | CCCC[C@H]1C(=O)N(C)[C@@H](CCCC)C(=O)N[C@@H](CCCN)C(=O)N[C@H](C(=O)NCC(N)=O)CSCC(=O)N[C@@H](Cc2ccc(O)cc2)C(=O)N2CC[C@H]2C(=O)N[C@@H](CC(N)=O)C(=O)N2CCC[C@H]2C(=O)N[C@@H](Cc2cnc[nH]2)C(=O)N[C@@H](CC(C)C)C(=O)N2C[C@H](O)C[C@H]2C(=O)N[C@@H](Cc2c[nH]c3ccccc23)C(=O)N[C@@H](CO)C(=O)N[C@@H](Cc2c[nH]c3ccccc23)C(=O)N1C [Example 1176] | 6.76 to 30.3 nM | 4.78 to 72.9 nM
2 | CCCC[C@H]1C(=O)N(C)[C@@H](CCCC)C(=O)N[C@@H](CCCN)C(=O)N[C@H](C(=O)NCC(N)=O)CSCC(=O)N[C@@H](Cc2ccc(O)cc2)C(=O)N2CCC[C@H]2C(=O)N[C@@H](CC(=O)O)C(=O)N2CCC[C@H]2C(=O)N[C@@H](CN)C(=O)N[C@@H](CC(=O)O)C(=O)N2C[C@H](O)C[C@H]2C(=O)N[C@@H](Cc2c[nH]c3ccccc23)C(=O)N[C@@H](CCN)C(=O)N[C@@H](Cc2csc3ccccc23)C(=O)N1C [Example 1181] ({CH2CO}-YPDP[Dap]D[Hyp]W[Dab][Bta][NMeNle][NMeNle][Orn]CG-NH2; thioether N-14) | 6.76 to 30.3 nM | > 74.3 nM
3 | CCCC[C@H]1C(=O)N(C)[C@@H](CCCC)C(=O)N[C@@H](CCCN)C(=O)N[C@H](C(=O)NCC(N)=O)CSCC(=O)N[C@@H](Cc2ccc(O)cc2)C(=O)N(C)[C@@H](C)C(=O)N[C@@H](CC(=O)O)C(=O)N2CCC[C@H]2C(=O)N[C@@H](CN)C(=O)N[C@@H](CCC(=O)O)C(=O)N2C[C@H](O)C[C@H]2C(=O)N[C@@H](Cc2c[nH]c3ccccc23)C(=O)N[C@@H](CCN)C(=O)N[C@@H](Cc2csc3ccccc23)C(=O)N1C [Example 1183] ({CH2CO}-Y[NMeA]DP[Dap]E[Hyp]W[Dab][Bta][NMeNle][NMeNle][Orn]CG-NH2; thioether N-14) | 0.385 to 6.74 nM | 0.158 to 4.71 nM
4 | CCCC[C@H]1C(=O)N(C)[C@@H](CCCC)C(=O)N[C@@H](CCCN)C(=O)N[C@H](C(=O)NCC(N)=O)CSCC(=O)N[C@@H](Cc2ccc(O)cc2)C(=O)N(C)[C@@H](C)C(=O)N[C@@H](CC(=O)O)C(=O)N2CCC[C@H]2C(=O)N[C@@H](CN)C(=O)N[C@@H](CC(=O)O)C(=O)N2C[C@H](O)C[C@H]2C(=O)N[C@@H](Cc2c[nH]c3ccccc23)C(=O)N[C@@H](CCN)C(=O)N[C@@H](Cc2csc3ccccc23)C(=O)N1C [Example 1184] ({CH2CO}-Y[NMeA]DP[Dap]D[Hyp]W[Dab][Bta][NMeNle][NMeNle][Orn]CG-NH2; thioether N-14) | 0.385 to 6.74 nM | 0.158 to 4.71 nM
5 | CCCC[C@H]1C(=O)N(C)[C@@H](CCCC)C(=O)N[C@@H](CCCN)C(=O)N[C@H](C(=O)NCC(N)=O)CSCC(=O)N[C@@H](Cc2ccc(O)cc2)C(=O)N(C)[C@@H](C)C(=O)N[C@@H](CC(N)=O)C(=O)N2CCC[C@H]2C(=O)N[C@@H](CN)C(=O)N[C@@H](CCC(=O)O)C(=O)N2C[C@H](O)C[C@H]2C(=O)N[C@@H](Cc2c[nH]c3ccccc23)C(=O)N[C@@H](CCN)C(=O)N[C@@H](Cc2csc3ccccc23)C(=O)N1C [Example 1185] ({CH2CO}-Y[NMeA]NP[Dap]E[Hyp]W[Dab][Bta][NMeNle][NMeNle][Orn]CG-NH2; thioether N-14) | 0.385 to 6.74 nM | 0.158 to 4.71 nM
6 | CCCC[C@H]1C(=O)N(C)[C@@H](CCCC)C(=O)N[C@@H](CCCN)C(=O)N[C@H](C(=O)NCC(N)=O)CSCC(=O)N[C@@H](Cc2ccc(O)cc2)C(=O)N(C)[C@@H](C)C(=O)N[C@@H](CC(N)=O)C(=O)N2CCC[C@H]2C(=O)N[C@@H](CN)C(=O)N[C@@H](CC(=O)O)C(=O)N2C[C@H](O)C[C@H]2C(=O)N[C@@H](Cc2c[nH]c3ccccc23)C(=O)N[C@@H](CCN)C(=O)N[C@@H](Cc2csc3ccccc23)C(=O)N1C [Example 1186] ({CH2CO}-Y[NMeA]NP[Dap]D[Hyp]W[Dab][Bta][NMeNle][NMeNle][Orn]CG-NH2; thioether N-14) | 0.385 to 6.74 nM | 0.158 to 4.71 nM
7 | CCCC[C@H]1C(=O)N(C)[C@@H](CCCC)C(=O)N[C@@H](CCCN)C(=O)N[C@H](C(=O)NCC(N)=O)CSCC(=O)N[C@@H](Cc2ccc(O)cc2)C(=O)N2CCC[C@H]2C(=O)N[C@@H](CC(=O)O)C(=O)N2CCC[C@H]2C(=O)N[C@@H](CN)C(=O)N[C@@H](CCC(N)=O)C(=O)N2C[C@H](O)C[C@H]2C(=O)N[C@@H](Cc2c[nH]c3ccccc23)C(=O)N[C@@H](CCN)C(=O)N[C@@H](Cc2csc3ccccc23)C(=O)N1C [Example 1187] ({CH2CO}-YPDP[Dap]Q[Hyp]W[Dab][Bta][NMeNle][NMeNle][Orn]CG-NH2; thioether N-14) | 6.76 to 30.3 nM | 4.78 to 72.9 nM

Now from value to compound:

Row | IC50 (Human PD-L1/PD-1) | IC50 [1] | SMILES
8 | 0.385 to 6.74 nM | 4.78 to 72.9 nM | CCCC[C@H]1C(=O)N(C)[C@@H](CCCC)C(=O)N[C@@H](C)C(=O)N[C@H](C(N)=O)CSCC(=O)N[C@@H](Cc2ccc(O)cc2)C(=O)N(C)[C@@H](C)C(=O)N[C@@H](CCC(=O)O)C(=O)N2CCC[C@H]2C(=O)N[C@@H](CN)C(=O)N[C@@H](CC(C)C)C(=O)N2C[C@H](O)C[C@H]2C(=O)N[C@@H](Cc2c[nH]c3ccccc23)C(=O)N[C@@H](CO)C(=O)N[C@@H](Cc2c[nH]c3ccccc23)C(=O)N1C [Example 1172] ({CH2CO}-Y[NMeA]EP[Dap]L[Hyp]WSW[NMeNle][NMeNle]AC-NH2; thioether N-14)
9 | 0.385 to 6.74 nM | 0.158 to 4.71 nM | CCCC[C@H]1C(=O)N(C)[C@@H](CCCC)C(=O)N[C@@H](CCCN)C(=O)N[C@H](C(=O)NCC(N)=O)CSCC(=O)N[C@@H](Cc2ccc(O)cc2)C(=O)N2CC(F)(F)C[C@H]2C(=O)N[C@@H](CC(N)=O)C(=O)N2CCC[C@H]2C(=O)N[C@@H](Cc2cnc[nH]2)C(=O)N[C@@H](CC(C)C)C(=O)N2C[C@H](O)C[C@H]2C(=O)N[C@@H](Cc2c[nH]c3ccccc23)C(=O)N[C@@H](CO)C(=O)N[C@@H](Cc2c[nH]c3ccccc23)C(=O)N1C [Example 1174]
10 | 0.385 to 6.74 nM | 4.78 to 72.9 nM | CCCC[C@H]1C(=O)N(C)[C@@H](CCCC)C(=O)N[C@@H](CCCNC(=N)N)C(=O)N[C@H](C(=O)NCC(N)=O)CSCC(=O)N[C@@H](Cc2ccc(O)cc2)C(=O)N(C)[C@@H](C)C(=O)N[C@@H](CCC(=O)O)C(=O)N2CCC[C@H]2C(=O)N[C@@H](Cc2cnc[nH]2)C(=O)N[C@@H](CC(C)C)C(=O)N2C[C@H](O)C[C@H]2C(=O)N[C@@H](Cc2c[nH]c3ccccc23)C(=O)N[C@@H](CO)C(=O)N[C@@H](Cc2c[nH]c3ccccc23)C(=O)N1C [Example 1175] ({CH2CO}-Y[NMeA]EPHL[Hyp]WSW[NMeNle][NMeNle]RCG-NH2; thioether N-14)
11 | 0.385 to 6.74 nM | 0.158 to 4.71 nM | CCCC[C@H]1C(=O)N(C)[C@@H](CCCC)C(=O)N[C@@H](CCCN)C(=O)N[C@H](C(=O)NCC(N)=O)CSCC(=O)N[C@@H](Cc2ccc(O)cc2)C(=O)N2CCCC[C@H]2C(=O)N[C@@H](CC(N)=O)C(=O)N2CCC[C@H]2C(=O)N[C@@H](Cc2cnc[nH]2)C(=O)N[C@@H](CC(C)C)C(=O)N2C[C@H](O)C[C@H]2C(=O)N[C@@H](Cc2c[nH]c3ccccc23)C(=O)N[C@@H](CO)C(=O)N[C@@H](Cc2c[nH]c3ccccc23)C(=O)N1C [Example 1177]
12 | 0.385 to 6.74 nM | 4.78 to 72.9 nM | CCCC[C@H]1C(=O)N(C)[C@@H](CCCC)C(=O)N[C@@H](C)C(=O)N[C@H](C(=O)NCC(N)=O)CSCC(=O)N[C@@H](Cc2ccc(O)cc2)C(=O)N(C)[C@@H](C)C(=O)N[C@@H](CCC(=O)O)C(=O)N2CCC[C@H]2C(=O)N[C@@H](Cc2cnc[nH]2)C(=O)N[C@@H](CCCN)C(=O)N2C[C@H](O)C[C@H]2C(=O)N[C@@H](Cc2c[nH]c3ccccc23)C(=O)N[C@@H](CO)C(=O)N[C@@H](Cc2c[nH]c3ccccc23)C(=O)N1C [Example 1178] ({CH2CO}-Y[NMeA]EPH[Orn][Hyp]WSW[NMeNle][NMeNle]ACG-NH2; thioether N-14)
13 | 0.385 to 6.74 nM | 4.78 to 72.9 nM | CCCC[C@H]1C(=O)N(C)[C@@H](CCCC)C(=O)N[C@@H](C)C(=O)N[C@H](C(=O)NCC(N)=O)CSCC(=O)N[C@@H](Cc2ccc(O)cc2)C(=O)N(C)[C@@H](C)C(=O)N[C@@H](CCCN)C(=O)N2CCC[C@H]2C(=O)N[C@@H](Cc2cnc[nH]2)C(=O)N[C@@H](CCC(=O)O)C(=O)N2C[C@H](O)C[C@H]2C(=O)N[C@@H](Cc2c[nH]c3ccccc23)C(=O)N[C@@H](CO)C(=O)N[C@@H](Cc2c[nH]c3ccccc23)C(=O)N1C [Example 1179] ({CH2CO}-Y[NMeA][Orn]PHE[Hyp]WSW[NMeNle][NMeNle]ACG-NH2; thioether N-14)
14 | 0.385 to 6.74 nM | 0.158 to 4.71 nM | CCCC[C@H]1C(=O)N(C)[C@@H](CCCC)C(=O)N[C@@H](CN)C(=O)N[C@H](C(=O)NCC(N)=O)CSCC(=O)N[C@@H](Cc2ccc(O)cc2)C(=O)N(C)[C@@H](C)C(=O)N[C@@H](CC(N)=O)C(=O)N2CCC[C@H]2C(=O)N[C@@H](CN)C(=O)N[C@@H](CC(C)C)C(=O)N2C[C@H](O)C[C@H]2C(=O)N[C@@H](Cc2c[nH]c3ccccc23)C(=O)N[C@@H](CCN)C(=O)N[C@@H](Cc2csc3ccccc23)C(=O)N1C [Example 1180] ({CH2CO}-Y[NMeA]NP[Dap]L[Hyp]W[Dab][Bta][NMeNle][NMeNle][Dap]CG-NH2; thioether N-14)
15 | 0.385 to 6.74 nM | 0.158 to 4.71 nM | CCCC[C@H]1C(=O)N(C)[C@@H](CCCC)C(=O)N[C@@H](CCCN)C(=O)N[C@H](C(=O)NCC(N)=O)CSCC(=O)N[C@@H](Cc2ccc(O)cc2)C(=O)N(C)[C@@H](C)C(=O)N[C@@H](CC(=O)O)C(=O)N2CCC[C@H]2C(=O)N[C@@H](CN)C(=O)N[C@@H](CCC(N)=O)C(=O)N2C[C@H](O)C[C@H]2C(=O)N[C@@H](Cc2c[nH]c3ccccc23)C(=O)N[C@@H](CCN)C(=O)N[C@@H](Cc2csc3ccccc23)C(=O)N1C [Example 1182] ({CH2CO}-Y[NMeA]DP[Dap]Q[Hyp]W[Dab][Bta][NMeNle][NMeNle][Orn]CG-NH2; thioether N-14)
